{
  "source": "patent US20230301947A1",
  "about": "“COMPOUND FOR PREVENTING AND TREATING PSYCHIATRIC DISORDERS AND USE THEREOF” (SHANGHAI INSTITUTE OF MATERIA MEDICA, CHINESE ACADEMY OF …, priority 2020, published 2023)",
  "key": {"mice": {"test_system": "mice", "assay": "14-day subacute toxicity test in mice", "type": "in vivo", "conditions": "male and female mice; 5, 50 and 100 mg/kg intraperitoneal, once a day, 14 days", "experimental": "Test drug configuration: CLA096: Three doses were set up: 5 mg/kg, 50 mg/kg and 100 mg/kg, respectively."}, "TREK-1 ion channel": {"target": "T1, TREK-1 ion channel (Homo sapiens, UniProt O95069)", "T1 construct": "expressed in transfected cells; host or cells: CHO-K1", "T1 sequence (O95069 1-426)": "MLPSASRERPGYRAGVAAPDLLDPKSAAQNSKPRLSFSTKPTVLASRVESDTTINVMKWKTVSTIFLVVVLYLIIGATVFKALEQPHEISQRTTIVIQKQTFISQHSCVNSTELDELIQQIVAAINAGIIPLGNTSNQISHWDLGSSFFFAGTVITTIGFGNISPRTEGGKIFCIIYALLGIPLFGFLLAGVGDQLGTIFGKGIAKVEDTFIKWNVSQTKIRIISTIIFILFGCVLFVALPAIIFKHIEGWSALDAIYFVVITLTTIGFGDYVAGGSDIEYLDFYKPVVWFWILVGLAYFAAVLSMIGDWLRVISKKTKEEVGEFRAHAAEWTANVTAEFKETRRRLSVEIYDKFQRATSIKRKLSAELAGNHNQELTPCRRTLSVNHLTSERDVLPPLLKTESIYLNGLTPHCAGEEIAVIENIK", "assay": "Whole-cell membrane clamp recording of TREK-1 channel current in transfected CHO-K1 cells", "type": "cell-based", "experimental": "Cells were transfected using a cationic liposome transfection method, and the target gene TREK-1 plasmid protein was heterologously expressed in CHO-K1 cells according to the operating standard instructions of Lipo3000 transfection reagent. The ion channel protein was expressed in the cells for 24-48 h followed by electrophysiological experiments.\nWhole-cell membrane clamp recording mode was used for electrophysiological experiments. The transfected cells were placed in a bath containing extracellular fluid, the resistance of the drawn electrode is 3-7 MΩ, the electrode was filled with intracellular fluid, the polished electrode was used to contact the cell membrane, the positive voltage was removed and the negative voltage was gently applied to form a high impedance seal, and then the cell membrane was broken by continuing to apply negative voltage, i.e. whole-cell recording mode was formed. The sampling frequency of the electrophysiological amplifier was 10 kHz, and the data sampling was controlled using a DigiData 1440A conversion interface. The software used for collecting and analyzing whole-cell recording experimental data is Clamfit 10.7, the software used for data analysis and graphing is Origin 8.1, and the software used for statistical analysis is SPSS.\nCLA096: Three doses were set up in this example. The drug was firstly dissolved in DMSO and then diluted with tri-distilled water to […]: 5 µM, 10 µM and 20 µM, respectively.\nThe experiment was performed using a cell membrane clamp method to record the current of TREK-1 ion channel in whole cells. Protocol A0 was chosen to record the currents of cells at -80 mV, -60 mV, -40 mV, -20 mV, 0 mV, 20 mV, 40 mV, 60 mV and 80 mV, and Protocol A0 was repeated with different concentrations such as 5 µM, 10 µM and 20 µM of CLA096 being perfused, respectively. After administration, whether it can be eluted was tested."}, "SD rats [1]": {"test_system": "SD rats", "assay": "Forced swimming test in rats (control and ACTH-induced refractory depression model)", "type": "in vivo", "conditions": "20 mg/kg intraperitoneal, tested 30 min after administration; for antidepressant effect in forced swimming: ACTH group SD rats (refractory depression model)", "experimental": "(§1) The forced swimming test system is primarily used in antidepressant studies.\n(§2) Experimental operation: Mice were individually placed in a cylindrical glass tank 30 cm high and 20 cm in diameter, with a water depth of 15 cm (20 cm for rats), so that the mice are unable to escape from the glass tank and their feet and tails can not touch the bottom of the tank. The water temperature was 23° C.-25° C. The mice were filmed for 6 minutes after entering the water. Since most of the mice were very active in the first two minutes, the last 4 minutes of immobility time were calculated (criteria for determining immobility: the mice stopped struggling in the water, immobility and fine limb movements to maintain balance or float). Groups of mice were operated in parallel.\nAn animal model of refractory depression was induced in SD rats by continuous intraperitoneal injection of adrenocorticotropic hormone (ACTH) for 3 weeks. This model can block the effects of tricyclic antidepressants and some SSRIs antidepressants, but can not block the efficacy of ketamine and electroconvulsive therapy (ETC). Since ketamine and ETC have specific efficacy in refractory depression, this animal model can be used to preliminary evaluate whether the drug have efficacy in refractory depression.\n1. SD rats in the model group (ACTG) were continuously injected with ACTH for 3 weeks (once/day), and the test drug was injected intraperitoneally 24 h after the last administration of ACTH. The rats in the control group (CON) were continuously injected intraperitoneally with 0.9% saline (once/day) and similarly the test drug was injected intraperitoneally 24 h after the last administration of saline.\n3. After the open-field experiment, ACTH was continued to be injected, and after 24 h, the above test drug was injected intraperitoneally and forced swimming was tested 30 min after the administration."}, "C57 mice [2]": {"test_system": "C57 mice", "assay": "Novelty-suppressed feeding experiment in normal mice", "type": "in vivo", "conditions": "C57 male mice, intraperitoneal", "experimental": "Novelty-suppressed feeding experiment (NSF) is a conflict between feeding occurred in a novel environment in a state of starvation after fasting and fear of novel environment. Long-term administration of antidepressant drugs can reduce the conflict response ability of animals, which is manifested by shortened incubation period of the start of feeding. This model is currently widely used in the evaluation of antidepressant and anti-anxiety efficacy.\nThe experimental equipment was a 35 cm*35 cm*30 cm (L*W*H) open box, which was overspread with substrate, and a white filter paper with a diameter of 5 cm was placed in the open box, and 2 pieces of food were placed in the middle of the filter paper. The animals were fasted for 12 h before the administration of the drug.\nTwo hours before the behavioral test, the animal were moved into the functional room for 2 h to acclimatize. […] The animal were placed from the edge of the experimental open box, and the animal were regarded as successful feeding if their mouths touched the food within 10 min, and then the animal were removed immediately and the time of successful feeding (i.e. Novelty latency) was calculated. The animal were then placed in the normal feeding cage and the time from placement to feeding (i.e. Habituation latency) was also calculated. […] The whole experiment was recorded by camera, and the data were processed and analyzed offline. […]"}, "C57 mice [3]": {"test_system": "C57 mice", "assay": "Forced swimming experiment in normal mice", "type": "in vivo", "conditions": "C57 male mice, intraperitoneal; for immobility time in forced swimming test: compared with vehicle group", "experimental": "as §1, §2\nCLA096: Three doses were set up in this example, the low, medium and high doses were 5 mg/kg, 20 mg/kg and 40 mg/kg, respectively. The compound was dissolved in 0.5% Tween-40 and sonicated, and should be used right after it was ready.\nFluoxetine (FLX): FLX with a dose of 10 mg/kg; dissolved in double distilled water, and should be used right after it was ready."}, "SD rats [4]": {"test_system": "SD rats", "assay": "Open field test in rats (control and ACTH-induced refractory depression model)", "type": "in vivo", "conditions": "normal animals and ACTH model animals (SD rats); 20 mg/kg intraperitoneal, tested 30 min after administration", "excerpt": "Open field test, also known as the open box test, is a method to evaluate the autonomous behavior, exploratory behavior and anxiety-like behavior of experimental animals in a novel environment. The frequency and duration of the normal activities, the fear of the open environment and the exploration of the new environment and other behaviors of the experimental animals in the open box are used to reflect the autonomous behavior and exploratory behavior of the experimental animals in the unfamiliar environment. The results of the open-field experiments were analyzed to evaluate the depression and anxiety-like behaviors of the animals.\nExperimental operation: the experimental animals were placed in the behavior room 2 hours before the experiment. The animals were placed in the center of the bottom of a black plastic box (size 100*100*45 cm) during the experiment, while video filming was performed. The experiment time was 10 minutes and was conducted in a quiet environment. […] The video was analyzed using the animal spontaneous activity analysis software to obtain information of central area activity time (anxiety-like behavior), total distance of activities (exercise ability), and number of wall climbing (novel environment exploratory behavior) and the like, which can be used to judge the depression or anxiety-like behavior of the animal and degree thereof. […]"}, "[5]": {"conditions": "CLA096 5, 20, 40 mg/kg vs positive control fluoxetine"}},
  "data": [
    {"smiles": "CN(Cc1ccccc1)C(=O)CN(c1ccc(Cl)cc1)S(C)(=O)=O", "note": "[CLA096, N-benzyl-2-(N-(4-chlorophenyl)methylsulfonylamino)-N-methylacetamide]", "values": [
      {"measurement": "body weight change", "setting": "mice", "result": "no significant changes in body weight"},
      {"measurement": "inhibition rate of TREK-1 channel open current", "setting": "TREK-1 ion channel; 5 µM CLA096", "result": "0.75 ± 0.02"},
      {"measurement": "inhibition rate of TREK-1 channel open current", "setting": "TREK-1 ion channel; 10 µM CLA096", "result": "0.55 ± 0.05"},
      {"measurement": "inhibition rate of TREK-1 channel open current", "setting": "TREK-1 ion channel; 20 µM CLA096", "result": "0.59 ± 0.01"},
      {"measurement": "antidepressant effect in forced swimming", "setting": "SD rats [1]", "result": "remained significant"},
      {"measurement": "immobility time of forced swimming", "setting": "SD rats [1]; control (CON) group SD rats", "result": "significantly reduced the immobility time"},
      {"measurement": "swimming time in forced swimming", "setting": "SD rats [1]; control (CON) group SD rats", "result": "significantly increased the swimming time"},
      {"measurement": "effect on feeding latency compared with fluoxetine", "setting": "C57 mice [2]; [5]", "result": "significantly better than fluoxetine"},
      {"measurement": "latency of feeding of fasted mice (novelty-suppressed feeding)", "setting": "C57 mice [2]; CLA096 5, 20 and 40 mg/kg, compared with vehicle group", "result": "significantly reduced the latency value"},
      {"measurement": "effect on forced swimming immobility time compared with fluoxetine", "setting": "C57 mice [3]; [5]", "result": "significantly better than fluoxetine"},
      {"measurement": "immobility time in forced swimming test", "setting": "C57 mice [3]; CLA096 5, 20 and 40 mg/kg", "result": "significantly reduces the immobility time of animals at all doses"},
      {"measurement": "total movement distance in open field", "setting": "SD rats [4]", "result": "no significant difference"}
    ]},
    {"smiles": "CNCCC(Oc1ccc(C(F)(F)F)cc1)c1ccccc1", "note": "(stereo not drawn) [Fluoxetine, reference compound]", "values": [
      {"measurement": "immobility time in forced swimming test", "setting": "C57 mice [3]; fluoxetine 10 mg/kg (table says 20)", "result": "significantly reduces the immobility time"}
    ]},
    {"smiles": "CN(C)CCCN1c2ccccc2CCc2ccccc21", "note": "[Imipramine]", "values": [
      {"measurement": "antidepressant effect in forced swimming", "setting": "SD rats [1]", "result": "blocked"},
      {"measurement": "immobility time of forced swimming", "setting": "SD rats [1]; control (CON) group SD rats", "result": "significantly reduced the immobility time"}
    ]},
    {"smiles": "CNC1(c2ccccc2Cl)CCCCC1=O", "note": "(stereo not drawn) [Ketamine]", "values": [
      {"measurement": "antidepressant effect in forced swimming", "setting": "SD rats [1]", "result": "remained significant"},
      {"measurement": "immobility time of forced swimming", "setting": "SD rats [1]; control (CON) group SD rats", "result": "significantly reduced the immobility time"},
      {"measurement": "total movement distance in open field", "setting": "SD rats [4]", "result": "no significant difference"}
    ]}
  ]
}
